Results taken from US20260069539A1, “LIPIDOID COMPOUNDS AND RELATED COMPOSITIONS AND USES” (Poseida Therapeutics, Inc., priority 2023, published 2026).

Test system: liver cells
Assay: In vivo LNP delivery of fLuciferase mRNA, bioluminescent imaging (BLI) at 4 hr
Design: species or system BALB/C mice
Conditions: for Mean Luciferase Flux: 0.5 mg/kg fLuc mRNA i.v., 4 hr; for Total Flux: 0.5 mg/kg fLuciferase mRNA intravenous, BLI at 4 hr
Procedure: Adult female BALB/C mice (n=3/group) were intravenously administered 0.5 mg/kg of 5′-CleanCap—fLuciferase mRNA (TriLink Biotech) formulated with the LNP compositions shown in Table 6. One group of mice was treated with vehicle (PBS, Thermo Fisher Scientific, USA) as a negative control.
(§1) The location and extent of luciferase expression in treated and control mice were determined at 4 hr for mRNA and 48 hr for DNA by bioluminescent imaging (BLI) of anesthetized mice using an IVIS Lumina in vivo imaging system (Perkin Elmer) according to the manufacturer's instructions. Briefly, mice were anesthetized using isoflurane in oxygen, and placed supine on a heated stage. Mice were then administered D-luciferin (Perkin-Elmer #122799) IP, and BLI was performed.
as §1, with “hr” for “hr for mRNA and 48 hr for DNA”
as §1, with “hr” for “hr for mRNA and 48 hr for DNA”
The location and extent of luciferase expression in treated and control mice were determined at 4 hr by bioluminescent imaging (BLI) of anesthetized mice using an IVIS Lumina in vivo imaging system (Perkin Elmer) according to the manufacturer's instructions.
Briefly, mice were anesthetized using isoflurane in oxygen, and placed supine on a heated stage. Mice were then administered D-luciferin (Perkin-Elmer #122799) IP, and BLI was performed.
as §1, with “hr” for “hr for mRNA and 48 hr for DNA”

[1] = Table 13 experiment, LNP with 50 % moles of the compound (DOPC 10/Chol 38.5/PEG-DMG 1.5, Lipid:RNA 80)
[2] = Example 104, experiment of Table 63
[3] = LNP with 40.75 % moles of the compound (DOPC 5.0/Chol 51.75/PEG-DMG 2.5, Lipid:RNA 100)
[4] = LNP with 43.17 % moles of the compound (DOPC 11.96/Chol 43.17/PEG-DMG 1.7, Lipid:RNA 100)
[5] = LNP with 54.0 % moles of the compound (DOPC 10.0/Chol 35.0/PEG-DMG 1.0, Lipid:RNA 100)
[6] = Example 104, experiment of Table 65
[7] = Example 104, experiment of Table 64

## CCCCCCCCC(CCCCCCCC)OC(=O)C1CCC(C(=O)OCCCCCN(CCO)CCCCCCCOC(=O)C2CCC(CCCCC)CC2)CC1 (stereo not shown) [COMPOUND NO. 34]
[1]
  Mean Luciferase Flux: 1.87E+10 p/s

## CCCCC[C@H]1CC[C@H](C(=O)OCCCCCN(CCO)CCCOC(=O)[C@H]2CC[C@H](CCCCC)CC2)CC1 [COMPOUND NO. 21]
[1]
  Mean Luciferase Flux: 1.27E+08 p/s

## CCCCC[C@H]1CC[C@H](C(=O)OCC(COC(=O)CCCCCN(CCCCCCO)CCCCCC(=O)OCC(COC(=O)[C@H]2CC[C@H](CCCCC)CC2)COC(=O)[C@H]2CC[C@H](CCCCC)CC2)COC(=O)[C@H]2CC[C@H](CCCCC)CC2)CC1 [COMPOUND NO. 52]
[2]
  Total Flux: 1.81E+11 p/s

## CCCCCC(=O)OCC1CCC(COC(=O)C(CCCN(CCCO)CCCC(C(=O)OCC2CCC(COC(=O)CCCCC)CC2)C(=O)OCC2CCC(COC(=O)CCCCC)CC2)C(=O)OCC2CCC(COC(=O)CCCCC)CC2)CC1 (stereo not shown) [COMPOUND NO. 49]
[2]
  Total Flux: 2.00E+11 p/s

## CC(C)CCCC(=O)OCC1CCC(COC(=O)CCN(CCCN(C)CCCN(CCC(=O)OCC2CCC(COC(=O)CCCC(C)C)CC2)CCC(=O)OCC2CCC(COC(=O)CCCC(C)C)CC2)CCC(=O)OCC2CCC(COC(=O)CCCC(C)C)CC2)CC1 (stereo not shown) [COMPOUND NO. 7]
[3]
  Mean Luciferase Flux: 6.41E+10 p/s
[4]
  Mean Luciferase Flux: 1.84E+11 p/s
[5]
  Mean Luciferase Flux: 1.55E+11 p/s

## CCCCCCCCC(CCCCCC)C(=O)O[C@H]1CC[C@H](OC(=O)CCCCCN(CCO)CCCCCC(=O)O[C@H]2CC[C@H](OC(=O)C(CCCCCC)CCCCCCCC)CC2)CC1 (stereo partly shown) [COMPOUND NO. 27]
[1]
  Mean Luciferase Flux: 1.10E+10 p/s

## CCCCC[C@H]1CC[C@H](C(=O)OCC(COC(=O)CCCCN(CCCO)CCCCC(=O)OCC(COC(=O)[C@H]2CC[C@H](CCCCC)CC2)COC(=O)[C@H]2CC[C@H](CCCCC)CC2)COC(=O)[C@H]2CC[C@H](CCCCC)CC2)CC1 [COMPOUND NO. 72]
[6]
  Total Flux: 2.40E+11 p/s

## O=C(CCCCCN(CCCO)CCCCCC(=O)OCC(COC(=O)CCCCC1CCCCC1)COC(=O)CCCCC1CCCCC1)OCC(COC(=O)CCCCC1CCCCC1)COC(=O)CCCCC1CCCCC1 [COMPOUND NO. 66]
[2]
  Total Flux: 3.25E+11 p/s

## CCCCCC(=O)OCC1CCC(COC(=O)CCN(CCCN(C)CCCN(CCC(=O)OCC2CCC(COC(=O)CCCCC)CC2)CCC(=O)OCC2CCC(COC(=O)CCCCC)CC2)CCC(=O)OCC2CCC(COC(=O)CCCCC)CC2)CC1 (stereo not shown) [COMPOUND NO. 8]
[3]
  Mean Luciferase Flux: 1.27E+11 p/s
[4]
  Mean Luciferase Flux: 3.31E+11 p/s
[5]
  Mean Luciferase Flux: 2.33E+11 p/s

## CCCCC[C@H]1CC[C@H](C(=O)OCC(COC(=O)CCCCCN(CCCCCO)CCCCCC(=O)OCC(COC(=O)[C@H]2CC[C@H](CCCCC)CC2)COC(=O)[C@H]2CC[C@H](CCCCC)CC2)COC(=O)[C@H]2CC[C@H](CCCCC)CC2)CC1 [COMPOUND NO. 51]
[2]
  Total Flux: 2.65E+10 p/s

## CCCCC[C@H]1CC[C@H](C(=O)CCCCN(CCCOC(=O)[C@H]2CC[C@H](CCCCC)CC2)CCCN(C)CCCN(CCCOC(=O)[C@H]2CC[C@H](CCCCC)CC2)CCCOC(=O)[C@H]2CC[C@H](CCCCC)CC2)CC1 [COMPOUND NO. 35]
Table 13 experiment, first line of compound 35, printed 50 % moles (Table 12: 40.75 % moles, Lipid:RNA 80)
  Mean Luciferase Flux: 2.35E+09 p/s
Table 13 experiment, second line of compound 35, printed 50 % moles (Table 12: 40.75 % moles, Lipid:RNA 40)
  Mean Luciferase Flux: 3.13E+09 p/s

## CCCCC[C@H]1CC[C@H](C(=O)OCC(COC(=O)CCCCCN(CCCCCC(=O)OCC(COC(=O)[C@H]2CC[C@H](CCCCC)CC2)COC(=O)[C@H]2CC[C@H](CCCCC)CC2)C[C@@H](O)CO)COC(=O)[C@H]2CC[C@H](CCCCC)CC2)CC1 [COMPOUND NO. 60]
[7]
  Total Flux: 6.51E+10 p/s

## CCCCC[C@H]1CC[C@H](C(=O)OCC(COC(=O)CCCCCN(CCCCCC(=O)OCC(COC(=O)[C@H]2CC[C@H](CCCCC)CC2)COC(=O)[C@H]2CC[C@H](CCCCC)CC2)CC(O)CO)COC(=O)[C@H]2CC[C@H](CCCCC)CC2)CC1 (mixture of isomers) [COMPOUND NO. 59]
[7]
  Total Flux: 1.06E+11 p/s

## CCCCC[C@H]1CC[C@H](C(=O)OCCCCCN(CCCO)CCCOC(=O)[C@H]2CC[C@H](CCCCC)CC2)CC1 [COMPOUND NO. 22]
[1]
  Mean Luciferase Flux: 2.31E+07 p/s

## CCCCC[C@H]1CC[C@H](C(=O)OCC(COC(=O)CCCCCN(CCCCCC(=O)OCC(COC(=O)[C@H]2CC[C@H](CCCCC)CC2)COC(=O)[C@H]2CC[C@H](CCCCC)CC2)CC(C)O)COC(=O)[C@H]2CC[C@H](CCCCC)CC2)CC1 (mixture of isomers) [COMPOUND NO. 55]
[2]
  Total Flux: 7.89E+10 p/s

## CCCCCCCCC(CCCCCCCC)OC(=O)[C@H]1CC[C@H](C(=O)OCCCCCN(CCCO)CCCCCOC(=O)[C@H]2CC[C@H](C(=O)OC(CCCCCCCC)CCCCCCCC)CC2)CC1 [COMPOUND NO. 31]
[1]
  Mean Luciferase Flux: 1.00E+10 p/s

## CCCCC[C@H]1CC[C@H](C(=O)OCC(COC(=O)CCCCCN(CCC)CCCCCC(=O)OCC(COC(=O)[C@H]2CC[C@H](CCCCC)CC2)COC(=O)[C@H]2CC[C@H](CCCCC)CC2)COC(=O)[C@H]2CC[C@H](CCCCC)CC2)CC1 [COMPOUND NO. 58]
[7]
  Total Flux: 4.38E+09 p/s

## CCCCC[C@H]1CC[C@H](C(=O)OCC(COC(=O)CCCCCN(CCCCCC(=O)OCC(COC(=O)[C@H]2CC[C@H](CCCCC)CC2)COC(=O)[C@H]2CC[C@H](CCCCC)CC2)C(CO)CO)COC(=O)[C@H]2CC[C@H](CCCCC)CC2)CC1 [COMPOUND NO. 62]
[6]
  Total Flux: 2.20E+11 p/s

## CC(C)CCCC1CCC(COC(=O)CCN(CCCN(C)CCCN(CCC(=O)OCC2CCC(CCCC(C)C)CC2)CCC(=O)OCC2CCC(CCCC(C)C)CC2)CCC(=O)OCC2CCC(CCCC(C)C)CC2)CC1 (stereo not shown) [COMPOUND NO. 1]
[3]
  Mean Luciferase Flux: 8.79E+09 p/s
[4]
  Mean Luciferase Flux: 1.01E+10 p/s
[5]
  Mean Luciferase Flux: 6.15E+08 p/s

## CCCCC[C@H]1CC[C@H](C(=O)OCCCCCCCN(CCO)CCCCCCCOC(=O)[C@H]2CC[C@H](CCCCC)CC2)CC1 [COMPOUND NO. 24]
[1]
  Mean Luciferase Flux: 3.46E+06 p/s

## CN(CCCN(CCC(=O)OCC1CCC(CCCCC2CCCCC2)CC1)CCC(=O)OCC1CCC(CCCCC2CCCCC2)CC1)CCCN(CCC(=O)OCC1CCC(CCCCC2CCCCC2)CC1)CCC(=O)OCC1CCC(CCCCC2CCCCC2)CC1 (stereo not shown) [COMPOUND NO. 2]
[3]
  Mean Luciferase Flux: 2.53E+07 p/s

## O=C(OCCCCC1CCCCC1)C(CCCCCCN(CCCO)CCCCCCC(C(=O)OCCCCC1CCCCC1)C(=O)OCCCCC1CCCCC1)C(=O)OCCCCC1CCCCC1 [COMPOUND NO. 45]
[2]
  Total Flux: 2.42E+10 p/s

## CN(CCN(CCC(=O)OCCOC(=O)CCCCC1CCCCC1)CCC(=O)OCCOC(=O)CCCCC1CCCCC1)CCN(CCC(=O)OCCOC(=O)CCCCC1CCCCC1)CCC(=O)OCCOC(=O)CCCCC1CCCCC1 [COMPOUND NO. 6]
[3]
  Mean Luciferase Flux: 1.78E+11 p/s
[4]
  Mean Luciferase Flux: 3.23E+10 p/s
[5]
  Mean Luciferase Flux: 4.58E+10 p/s

## CCCCCCCCC(CCCCCC)C(=O)OC1CCC(OC(=O)CCCCCN(CCO)CCCCCCCOC(=O)C2CCC(CCCCC)CC2)CC1 (stereo not shown) [COMPOUND NO. 33]
[1]
  Mean Luciferase Flux: 1.73E+10 p/s

## CN(CCCN(CCC(=O)OCCOC(=O)CCCCC1CCCCC1)CCC(=O)OCCOC(=O)CCCCC1CCCCC1)CCCN(CCC(=O)OCCOC(=O)CCCCC1CCCCC1)CCC(=O)OCCOC(=O)CCCCC1CCCCC1 [COMPOUND NO. 5]
[3]
  Mean Luciferase Flux: 2.84E+11 p/s
[4]
  Mean Luciferase Flux: 7.16E+10 p/s
[5]
  Mean Luciferase Flux: 7.25E+08 p/s

## CCCCC(CC)CCCCOC(=O)C(CCCN(CCCO)CCCC(C(=O)OCCCCC1CCCCC1)C(=O)OCCCCC1CCCCC1)C(=O)OCCCCC1CCCCC1 (stereo not shown) [COMPOUND NO. 44]
[2]
  Total Flux: 5.73E+08 p/s

## CCCCC[C@H]1CC[C@H](C(=O)OCC(COC(=O)CCCCCN(CCCCCC(=O)OCC(COC(=O)[C@H]2CC[C@H](CCCCC)CC2)COC(=O)[C@H]2CC[C@H](CCCCC)CC2)C[C@H](O)CO)COC(=O)[C@H]2CC[C@H](CCCCC)CC2)CC1 [COMPOUND NO. 61]
[7]
  Total Flux: 1.04E+11 p/s

## CC(C)CCCC1CCC(COC(=O)C(CCCN(C)CCCC(C(=O)OCC2CCC(CCCC(C)C)CC2)C(=O)OCC2CCC(CCCC(C)C)CC2)C(=O)OCC2CCC(CCCC(C)C)CC2)CC1 (stereo not shown) [COMPOUND NO. 43]
Table 14 experiment, LNP with 40.75 % moles of the compound (Lipid:RNA 40)
  Mean Luciferase Flux: 1.12E+09 p/s
Table 14 experiment, LNP with 50 % moles of the compound (Lipid:RNA 80)
  Mean Luciferase Flux: 1.10E+09 p/s
